Test results as given in patent US12570648B2, “6,7-dihydro-5H-pyrido[2,3-c]pyridazine derivatives and related compounds as Bcl-xL protein inhibitors and pro-apoptotic agents for treating cancer” (LES LABORATOIRES SERVIER, priority 2019, dated 2026).
pIC50, pKi: −log10 of the molar value.

Columns and labels:
MOLT-4 cells = assay: MOLT-4 cell viability using MTT assay; assay type: cell-based; settings: Homo sapiens, MOLT-4, 48 h, 48 h exposure
Experimental: MTT colorimetric assay is based on the mitochondrial reduction of tetrazolium salt by living cells.
Cells were cultured at 37° C. in a humidified atmosphere containing 5% CO2. […] At the end of incubation time, 15 μL of MTT solution (5 mg/ml) were added per well and the cells were incubated for another 4 h. […] IC50s were calculated using standard four-parametric curve fitting.

[1] = target: His-His-(EK)-hsBCLXL(2-197)[N197C] (Homo sapiens (Human), UniProt Q07817, N197C); assay: Fluorescence quenching assay; assay type: binding; settings: 1 nM Cy5-labelled protein, 400 nM PUMA peptide, 2 hours at 23° C.; KI determined from IC50
His-His-(EK)-hsBCLXL(2-197)[N197C], sequence (Q07817 2-197 N197C): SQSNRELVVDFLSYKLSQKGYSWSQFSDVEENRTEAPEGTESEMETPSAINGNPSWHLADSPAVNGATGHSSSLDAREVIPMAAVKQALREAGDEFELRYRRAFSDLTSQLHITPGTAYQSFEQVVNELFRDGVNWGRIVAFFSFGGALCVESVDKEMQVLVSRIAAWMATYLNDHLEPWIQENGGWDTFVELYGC
Outline: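 Cy5-labelled BCL-xL (1 nM) with TQ5WS quencher-labelled PUMA peptide (400 nM); displacement by compound (11-point dilution) raises fluorescence. Buffer 10 mM HEPES, 150 mM NaCl, 0.05% Tween 20, pH 7.4, 5% DMSO; 2 h at 23° C, Ex 620/Em 680 nm. Ki derived from IC50.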

H146 cells = assay: H146 cell viability using MTT assay; assay type: cell-based; settings: Homo sapiens, NCI-H146, 48 h exposure
Experimental: MTT colorimetric assay is based on the mitochondrial reduction of tetrazolium salt by living cells. The viable cell number is proportional to the production of formazan salts, which can be read spectrophotometrically at 540 nm.
MOLT-4 and H146 cells were purchased from ATCC and cultivated in RPMI 1640 supplemented with 10% heat inactivated fetal bovine serum, penicillin (100 IU/ml), streptomycin (100 μg/ml) and L-glutamine (2 mM). Cells were cultured at 37° C. in a humidified atmosphere containing 5% CO2. Cells were seeded in 96 microwell plates (150p per well) and exposed to the compounds for 48 h (3.16 fold serially diluted; 9 concentrations each, triplicates). At the end of incubation time, 15 μL of MTT solution (5 mg/ml) were added per well and the cells were incubated for another 4 h. Then, 100 μL of 10% Sodium Dodecyl Sulfate (SDS)/HCl 10 mM were added per well and the plate was incubated overnight, before measurement of optical density at 540 nm. IC50s were calculated using standard four-parametric curve fitting.

| Structure (SMILES) | pIC50 (MOLT-4 cells) | pKi [1] | pIC50 (H146 cells) |
| --- | --- | --- | --- |
| Cc1c(Nc2nc3ccccc3s2)nnc2c1CCCN2c1nc(C(=O)O)c(CCCOc2ccc(C#CCN3CCCCC3)cc2F)s1 [Example 46, 2-[3-(1,3-Benzothiazol-2-ylamino)-4-methyl-6,7-dihydro-5H-pyrido[2,3-c]pyridazin-8-yl]-5-[3-[2-fluoro-4-[3-(1-piperidyl)prop-1-ynyl]phenoxy]propyl]thiazole-4-carboxylic acid] | 8.92 | 10.82 | 7.95 |
| Cc1c(Nc2nc3ccccc3s2)nnc2c1CCCN2c1nc(C(=O)O)c(CCCOc2ccc(CCCN3CCC4(CC3)CNC(=O)C4)cc2F)s1 [Example 73, 2-[3-(1,3-Benzothiazol-2-ylamino)-4-methyl-6,7-dihydro-5H-pyrido[2,3-c]pyridazin-8-yl]-5-[3-[2-fluoro-4-[3-(3-oxo-2,8-diazaspiro[4.5]decan-8-yl)propyl]phenoxy]propyl]thiazole-4-carboxylic acid] | 8.18 | 11.60 | 7.83 |
| Cc1c(Nc2nc3ccccc3s2)nnc2c1CCCN2c1nc(C(=O)O)c(CCCOc2ccc(C#CCN3C[C@H]4C[C@H]4C3)cc2F)s1 [Example 56, 5-[3-[4-[3-[(1S,5R)-3-Azabicyclo[3.1.0]hexan-3-yl]prop-1-ynyl]-2-fluoro-phenoxy]propyl]-2-[3-(1,3-benzothiazol-2-ylamino)-4-methyl-6,7-dihydro-5H-pyrido[2,3-c]pyridazin-8-yl]thiazole-4-carboxylic acid] | 8.84 | 10.31 | 7.89 |
| Cc1c(Nc2nc3ccccc3s2)nnc2c1CCCN2c1nc(C(=O)O)c(CCCOc2ccc(C#CCN3CCC(N4CCCCC4)CC3)cc2F)s1 [Example 57, 2-[3-(1,3-Benzothiazol-2-ylamino)-4-methyl-6,7-dihydro-5H-pyrido[2,3-c]pyridazin-8-yl]-5-[3-[2-fluoro-4-[3-[4-(1-piperidyl)-1-piperidyl]prop-1-ynyl]phenoxy]propyl]thiazole-4-carboxylic acid] | 9.23 | 11.52 | 8.26 |
| Cc1c(Nc2nc3ccccc3s2)nnc2c1CCCN2c1nc(C(=O)O)c(CCCOc2ccc(C#CCN3C[C@@H]4[C@H](C3)C4(F)F)cc2F)s1 [Example 63, 2-[3-(1,3-Benzothiazol-2-ylamino)-4-methyl-6,7-dihydro-5H-pyrido[2,3-c]pyridazin-8-yl]-5-[3-[4-[3-[(1S,5R)-6,6-difluoro-3-azabicyclo[3.1.0]hexan-3-yl]prop-1-ynyl]-2-fluoro-phenoxy]propyl]thiazole-4-carboxylic acid] | – | 10.09 | 7.69 |
| Cc1c(Nc2nc3ccccc3s2)nnc2c1CCN2c1nc(C(=O)O)cs1 [Example 11, 2-{3-[(1,3-Benzothiazol-2-yl)amino]-4-methyl-5H,6H,7H-pyrrolo[2,3-c]pyridazin-7-yl}-1,3-thiazole-4-carboxylic acid] | 5.61 | – | 5.20 |
| Cc1c(Nc2nc3ccccc3s2)nnc2c1CCCN2c1ccc(-c2cnn(CC34CC5(C)CC(C)(C3)CC(OCCN3CCOCC3)(C5)C4)c2C)c(C(=O)O)n1 [Example 142, 6-[3-(1,3-benzothiazol-2-ylamino)-4-methyl-6,7-dihydro-5H-pyrido[2,3-c]pyridazin-8-yl]-3-[1-[[3,5-dimethyl-7-(2-morpholinoethoxy)-1-adamantyl]methyl]-5-methyl-pyrazol-4-yl]pyridine-2-carboxylic acid] | 10.29 | 11.59 | – |
| Cc1c(Nc2nc3ccccc3s2)nnc2c1CCCN2c1ccc(-c2cnn(CC34CC5(C)CC(C)(C3)CC(OCCN(C)CC[C@@H](O)CO)(C5)C4)c2C)c(C(=O)O)n1 [Example 130, 6-[3-(1,3-benzothiazol-2-ylamino)-4-methyl-6,7-dihydro-5H-pyrido[2,3-c]pyridazin-8-yl]-3-[1-[[3-[2-[[(3R)-3,4-dihydroxybutyl]-methyl-amino]ethoxy]-5,7-dimethyl-1-adamantyl]methyl]-5-methyl-pyrazol-4-yl]pyridine-2-carboxylic acid] | 8.71 | 11.64 | – |

Second part, the compound after the results:

| pIC50 (MOLT-4 cells) | pKi [1] | pIC50 (H146 cells) | Structure (SMILES) |
| --- | --- | --- | --- |
| 8.39 | 11.82 | 7.97 | Cc1c(Nc2nc3ccccc3s2)nnc2c1CCCN2c1nc(C(=O)O)c(CCCOc2ccc(OCCN(C)C)cc2)s1 [Example 44, 2-{3-[(1,3-Benzothiazol-2-yl)amino]-4-methyl-5H,6H,7H,8H-pyrido[2,3-c]pyridazin-8-yl}-5-(3-{4-[2-(dimethylamino)ethoxy]phenoxy}propyl)-1,3-thiazole-4-carboxylic acid] |
| 8.34 | 11.11 | 7.99 | CNCC#Cc1ccc(OCCCc2sc(N3CCc4c3nnc(Nc3nc5ccccc5s3)c4C)nc2C(=O)O)c(F)c1 [Example 37, 2-[3-(1,3-Benzothiazol-2-ylamino)-4-methyl-5,6-dihydropyrrolo[2,3-c]pyridazin-7-yl]-5-[3-[2-fluoro-4-[3-(methylamino)prop-1-ynyl]phenoxy]propyl]thiazole-4-carboxylic acid] |
| 8.47 | 10.64 | 7.76 | Cc1c(Nc2nc3ccccc3s2)nnc2c1CCCN2c1nc(C(=O)O)c(CCCOc2ccc(C#CCN(C)C)cc2Br)s1 [Example 59, 2-{3-[(1,3-Benzothiazol-2-yl)amino]-4-methyl-5H,6H,7H,8H-pyrido[2,3-c]pyridazin-8-yl}-5-(3-{2-bromo-4-[3-(dimethylamino)prop-1-yn-1-yl]phenoxy}propyl)-1,3-thiazole-4-carboxylic acid] |
| 6.91 | 10.48 | 6.92 | Cc1c(Nc2nc3ccccc3s2)nnc2c1CCCN2c1nc(C(=O)O)c(CCCOc2cc3c(cc2F)c(CN(C)C)cn3C)s1 [Example 61, 2-{3-[(1,3-Benzothiazol-2-yl)amino]-4-methyl-5H,6H,7H,8H-pyrido[2,3-c]pyridazin-8-yl}-5-[3-({3-[(dimethylamino)methyl]-5-fluoro-1-methyl-1H-indol-6-yl}oxy)propyl]-1,3-thiazole-4-carboxylic acid] |
| 8.68 | 11.35 | 8.03 | Cc1c(Nc2nc3ccccc3s2)nnc2c1CCCN2c1nc(C(=O)O)c(CCCOc2ccc(CCCN3CCCCC3)cc2F)s1 [Example 71, 2-[3-(1,3-Benzothiazol-2-ylamino)-4-methyl-6,7-dihydro-5H-pyrido[2,3-c]pyridazin-8-yl]-5-[3-[2-fluoro-4-[3-(1-piperidyl)propyl]phenoxy]propyl]thiazole-4-carboxylic acid] |
| 8.70 | 10.92 | 8.09 | Cc1c(Nc2nc3ccccc3s2)nnc2c1CCCN2c1nc(C(=O)O)c(CCCOc2cc3c(cc2F)CCN(C)C3)s1 [Example 66, 2-{3-[(1,3-Benzothiazol-2-yl)amino]-4-methyl-5H,6H,7H,8H-pyrido[2,3-c]pyridazin-8-yl}-5-{3-[(6-fluoro-2-methyl-1,2,3,4-tetrahydroisoquinolin-7-yl)oxy]propyl}-1,3-thiazole-4-carboxylic acid] |
| 8.56 | 11.05 | 8.05 | Cc1c(Nc2nc3ccccc3s2)nnc2c1CCCN2c1nc(C(=O)O)c(CCCOc2ccc(N3CCN(C)CC3)cc2F)s1 [Example 60, 2-{3-[(1,3-Benzothiazol-2-yl)amino]-4-methyl-5H,6H,7H,8H-pyrido[2,3-c]pyridazin-8-yl}-5-{3-[2-fluoro-4-(4-methylpiperazin-1-yl)phenoxy]propyl}-1,3-thiazole-4-carboxylic acid] |
| 8.54 | 11.42 | 7.98 | Cc1c(Nc2nc3ccccc3s2)nnc2c1CCCN2c1nc(C(=O)O)c(CCCOc2ccc(CCCN3CCN(C)CC3)cc2F)s1 [Example 68, 2-[3-(1,3-Benzothiazol-2-ylamino)-4-methyl-6,7-dihydro-5H-pyrido[2,3-c]pyridazin-8-yl]-5-[3-[2-fluoro-4-[3-(4-methylpiperazin-1-yl)propyl]phenoxy]propyl]thiazole-4-carboxylic acid] |
| 7.27 | 10.17 | – | COC(=O)c1nc(N2CCCc3c2nnc(Nc2nc4ccccc4s2)c3C)sc1CCCOc1ccc(C#CCN)cc1F [Example 126, methyl 5-[3-[4-(3-aminoprop-1-ynyl)-2-fluoro-phenoxy]propyl]-2-[3-(1,3-benzothiazol-2-ylamino)-4-methyl-6,7-dihydro-5H-pyrido[2,3-c]pyridazin-8-yl]thiazole-4-carboxylate] |
| 8.01 | 11.48 | – | CNCCCCc1ccc(OCCCc2sc(N3CCCc4c3nnc(Nc3nc5ccccc5s3)c4C)nc2C(=O)O)c(F)c1 [Example 75, 2-{3-[(1,3-Benzothiazol-2-yl)amino]-4-methyl-5H,6H,7H,8H-pyrido[2,3-c]pyridazin-8-yl}-5-(3-{2-fluoro-4-[4-(methylamino)butyl]phenoxy}propyl)-1,3-thiazole-4-carboxylic acid] |
